Test results reported in paper PMC12477080, “Polychlorinated biphenyls (PCBs) interact with drug metabolism in vivo” (Archives of Toxicology, 2025).

Experiments:
[1] = tested on: CYP1A2; parameters: method as in Solan and Lavado [2023]; settings: ref Solan and Lavado [2023]; cited from earlier work
[2] = tested on: CYP2C9 mRNA; settings: primary human hepatocytes, three donors, 48 h exposure; PCB74 0.1 and 0.5 µM
[3] = tested on: CYP2C9; test: CYP phenotyping cocktail clinical study: torsemide/OH-torsemide metabolic ratio and its association with PCB plasma levels
Description: (§1) The participants were ascertained not to have any acute disease by medical history, physical examination, laboratory screening, including hematological and biochemical blood tests, and a 12-lead electrocardiogram. […] The demographic data of the subjects are summarized in Table 1 in the supplemental data. At the enrollment visit, 2 blood samples (9 ml each) were collected into ethylenediaminetetraacetic acid (EDTA)-containing tubes taken from each subject for analyzing the plasma concentrations of PCB congeners and for pharmacogenetic analysis.
(§2) Participants stayed fasted from the evening before until 3 h after drug administration. After that, a meal was provided. Water and juice were permitted but alcoholic and caffeinated beverages were not allowed from the evening before drug administration until the last blood sample was taken on the next day. Venous blood samples (9 ml each) were collected through an intravenous catheter immediately before and 0.25, 0.5, 0.75, 1, 1.5, 2, 2.5, 3, 4, 5, 6, 7, 8, and 24 h after drug administration. Blood was drawn into EDTA-coated tubes, centrifuged at 1500 g for 10 min at 4 °C, and plasma samples were subsequently stored at − 80 °C until further analysis. After completely voiding the bladder immediately before drug administration, the participants collected urine from 0 to 24 h after drug administration. After weighing the collected urine, a 10 ml aliquot of each fraction was taken.
(§3) Commercially sourced standards and internal standards were used for quantification (see Supplemental Materials). In brief, 20 µl of the plasma samples were protein-precipitated with 80 µl methanol containing all internal standards or were treated for 16 h at 37 °C with 2 µl β-glucuronidase (1,000,000 Units) for deconjugation before protein precipitation with 78 µl methanol containing internal standards. Samples were centrifuged for 20 min, at 4 °C and 17,000 × g, and 40 µl of the supernatants were diluted with 40 µl LC–MS grade water, centrifuged again for 5 min at 4 °C and 17,000 × g and 50 µl supernatant were transferred to LC–MS vials 5 µl of the samples were injected into the LC–MS system.
(§4) An Agilent 1290 Infinity II UHPLC coupled with a SCIEX QTRAP6500 + triple quadrupole mass spectrometer was used. Chromatographic separation was achieved on an Agilent Poroshell 120 EC-C18 (1.9 µm, 2.1 × 50 mm) column with A: 0.1% formic acid in water and B: methanol with a flow rate of 0.7 ml/min and a total run time of 8.5 min. Analytes were eluted using a gradient program. The following gradient steps represent gradual changes in % B over time: 5% B from 0 to 0.2 min, 30% B at 2 min, 34% B at 4.8 min, 95% B at 6.5 min, 95% B at 7.5 min and re-equilibrating to 5% B at 7.7 min and 5%B till 8.5 min. A representative chromatogram is shown in supplemental Fig. 2. The scheduled MRM mode was applied for analyte detection in both positive and negative ESI modes (Supplementary Table 4). Calibration curves were constructed with linear regression using weighted (1/x^2) models (detailed information in supplemental methods).
(§5) Partial areas under the plasma concentration–time curves from 0 to 3 h (AUC0–3 h), from 0 to 4 h (AUC0–4 h), and from 0 to 8 h (AUC0–8 h) were calculated based on measured concentrations by the linear trapezoidal rule without extrapolation. […] Metabolic ratios (MR) were calculated by dividing the partial AUC of the metabolite by the respective partial AUC of the parent drug. The MRs were used as biomarkers for the individual CYP activities of the study subjects.

[4] = molecular target: recombinant CYP2C9 (Homo sapiens, UniProt P11712); settings: PCB74 1–10 µM; Luciferin–ME substrate
Description: (§6) CYP1A2 and CYP2C9 enzyme activity was first assessed using a luciferase-based P450-Glo™ screening system (Promega, Madison, WI, USA) following the manufacturer’s instructions. The reaction mixture consisted of 1 nM recombinant enzyme (CYP1A2 or CYP2C9), 250 µM luciferin–ME substrate, 0.1 M potassium phosphate buffer (pH 7.4), and an NADPH regeneration system (including NADP⁺, glucose-6-phosphate, MgCl₂, and glucose-6-phosphate dehydrogenase), in a total volume of 50 µL. Controls for enzyme inhibition included α-naphthoflavone (1 µM) for CYP1A2 and sulfaphenazole (2 µM) for CYP2C9. After preincubation at 37 °C for 10 min (excluding NADPH), the reaction was initiated by adding the NADPH regeneration system and incubated for 30 min. To terminate the reaction and generate luminescence, 50 µL of Luciferin Detection Reagent was added, followed by a 20-min incubation at room temperature. Luminescence was measured using a luminometer, with light intensity proportional to CYP activity. […] Enzyme activity was quantified relative to a d-luciferin standard curve and expressed as pmol luciferin/min/pmol CYP. […] Cells were maintained at 37 °C with 5% CO₂ throughout the experiment. […] Supernatants were transferred to LC–MS vials and analyzed for relevant metabolites. Details on metabolite quantification are provided in the supplemental file. […]

[5] = molecular target: HEK293 cells overexpressing CYP2C9 (Homo sapiens, UniProt P11712); settings: 0.1, 0.5, 1 µM PCB74, 24 h, then 10 µM torsemide 24 h
Description: as §6

[6] = Determination of PCB concentrations in plasma of HELPcB and control participants; format: in vivo; settings: human plasma
Description: The laboratory regularly participates in round robins for the determination of PCBs in plasma (www.g-equas.de).
Plasma concentrations of PCB congeners were quantified in blood samples from all participants using gas chromatography/mass spectrometry (GC–MS) (Fig. 2A and Supplementary Table 2). A total of 19 PCB congeners were measured in control (n = 10) and HELPcB (n = 10) participants, with PCBs detected in all individuals. […] In the control group, PCB plasma concentrations primarily reflected background environmental exposure, such as dietary intake, representing the general population’s burden.

[7] = tested on: CYP2D6; test: CYP phenotyping cocktail clinical study: metoprolol/α-OH-metoprolol metabolic ratio and its association with PCB plasma levels; settings: linear regression of MR AUC0–8 h α-OH-metoprolol/metoprolol (CYP2D6 activity) on PCB plasma concentration
Description: as §1, §2, §3, §4, §5

[8] = tested on: CYP2B6; test: CYP phenotyping cocktail clinical study: efavirenz/8-OH-efavirenz metabolic ratio and its association with PCB plasma levels; settings: linear regression of MR AUC0–8 h 8-OH-efavirenz/efavirenz (CYP2B6 activity) on PCB plasma concentration
Description: as §1, §2, §3, §4, §5

[9] = tested on: CYP2C9; parameters: method as in Makia et al. [2014]; settings: cFos and JunD binding to CYP2C9 promoter; ref Makia et al. [2014]; cited from earlier work
[10] = linear regression of MR AUC0–8 h OH-torsemide/torsemide (CYP2C9 activity) on PCB plasma concentration

HEK293 cells overexpressing CYP2C9, sequence (P11712 whole entry): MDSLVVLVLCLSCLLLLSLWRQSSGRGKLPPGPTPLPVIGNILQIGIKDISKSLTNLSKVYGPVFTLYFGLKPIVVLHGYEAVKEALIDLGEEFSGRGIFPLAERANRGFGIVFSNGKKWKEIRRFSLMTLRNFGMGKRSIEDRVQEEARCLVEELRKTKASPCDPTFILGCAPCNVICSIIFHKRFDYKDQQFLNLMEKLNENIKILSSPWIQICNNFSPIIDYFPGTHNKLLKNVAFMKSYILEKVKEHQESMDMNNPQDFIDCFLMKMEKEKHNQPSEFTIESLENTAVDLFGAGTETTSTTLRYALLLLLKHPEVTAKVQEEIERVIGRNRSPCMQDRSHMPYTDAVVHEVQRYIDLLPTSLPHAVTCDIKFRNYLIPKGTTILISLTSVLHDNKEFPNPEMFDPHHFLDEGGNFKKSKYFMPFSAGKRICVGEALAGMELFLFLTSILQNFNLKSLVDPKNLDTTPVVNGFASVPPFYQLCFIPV
recombinant CYP2C9, sequence (P11712 whole entry): as above

O=S(=O)(O)C(F)(F)C(F)(F)C(F)(F)C(F)(F)C(F)(F)C(F)(F)C(F)(F)C(F)(F)F [PFOS]
effect on CYP1A2 activity [1]: inhibits CYP1A2 activity

Clc1ccc(-c2cc(Cl)c(Cl)cc2Cl)cc1 [PCB74]
effect on CYP2C9 mRNA expression [2]: did not significantly increase CYP2C9 mRNA expression
association with CYP2C9 activity in hierarchical generalized mixed model ([3]; adjusted for co-factors (smoking status, gender, BMI, age)): became significant when BMI, gender, or all factors were included as co-factors
t value [3, 10]: 1,826
β (standardized regression coefficient) [3, 10]: 0,395
t value ([3]; linear regression of MR AUC0–8 h OH-torsemide/torsemide (CYP2C9 activity) on PCB plasma concentration, PM excl): 1,723
effect on CYP2C9 enzyme activity (luminescence) [4]: remained unaffected
effect on CYP2C9 activity in HEK293 cells (torsemide probe) [5]: did not significantly modulate CYP2C9 activity
PCB plasma concentration, Mean [±SD] HELPcB ([6]; HELPcB (occupationally exposed) group): 0.129 ± 0.121 ng/mL
PCB plasma concentration, Geometric mean, HELPcB ([6]; HELPcB group, N 10): 0.086 ng/mL
PCB plasma concentration, Mean [±SD] all ([6]; all participants): 0.071 ± 0.102 ng/mL
PCB plasma concentration, Mean [±SD] control ([6]; control group (background exposure)): 0.014 ± 0.011 ng/mL
PCB plasma concentration, Geometric mean, Control ([6]; control group, N 10): 0.010 ng/mL
t value [7]: 1,723
β (standardized regression coefficient) [7]: 0,376
t value [8]: 0,808
β (standardized regression coefficient) [8]: 0,204
t value ([8]; PM excl): 0,622
β (standardized regression coefficient) ([8]; PM excl): 0,170

CC(C)(C)c1cc(O)ccc1O [tBHQ, tert-butylhydroquinone]
effect on CYP2C9 expression [9]: induces CYP2C9 expression via AP-1 activation
